Key:
A549 = assay: Antiproliferative activity against human A549/ATCC cells assessed as growth inhibition after 48 hrs by sulforhodamine B assay; type: functional; details: A549, 48 h; for CC50: read-out: LC50 (the source's name)
SK-MEL-2 [1] = assay: Antiproliferative activity against human SK-MEL-2 cells assessed as growth inhibition after 48 hrs by sulforhodamine B assay; type: functional; details: SK-MEL-2, 48 h; for CC50: read-out: LC50 (the source's name)
MCF7 = assay: Antiproliferative activity against human MCF7 cells assessed as growth inhibition after 48 hrs by sulforhodamine B assay; type: functional; details: MCF7, 48 h; for CC50: read-out: LC50 (the source's name)
[2] = Antiproliferative activity against human OVCAR3 cells assessed as growth inhibition after 48 hrs by sulforhodamine B assay; type: functional; details: OVCAR-3, 48 h
[3] = Antiproliferative activity against human COLO205 cells assessed as cell growth at 10^-6 M after 48 hrs by sulforhodamine B assay; type: functional; details: COLO 205, 48 h, read-out: Activity
MDA-MB-468 = assay: Antiproliferative activity against human MDA-MB-468 cells assessed as cell growth at 10^-4 M after 48 hrs by sulforhodamine B assay; type: functional; details: MDA-MB-468, 48 h, read-out: Activity
CYP2C9 = CYP2C9 (Homo sapiens, UniProt P11712); assay: Inhibition of recombinant human CYP2C9 assessed as remaining enzyme activity using CYP2C9 green as substrate at 10 uM after 5 mins in presence of NADP by fluorescence plate reader analysis; type: ADME; details: recombinant human CYP2C9, probe CYP2C9 green, read-out: Activity
Sequence of CYP2C9 (P11712 whole entry): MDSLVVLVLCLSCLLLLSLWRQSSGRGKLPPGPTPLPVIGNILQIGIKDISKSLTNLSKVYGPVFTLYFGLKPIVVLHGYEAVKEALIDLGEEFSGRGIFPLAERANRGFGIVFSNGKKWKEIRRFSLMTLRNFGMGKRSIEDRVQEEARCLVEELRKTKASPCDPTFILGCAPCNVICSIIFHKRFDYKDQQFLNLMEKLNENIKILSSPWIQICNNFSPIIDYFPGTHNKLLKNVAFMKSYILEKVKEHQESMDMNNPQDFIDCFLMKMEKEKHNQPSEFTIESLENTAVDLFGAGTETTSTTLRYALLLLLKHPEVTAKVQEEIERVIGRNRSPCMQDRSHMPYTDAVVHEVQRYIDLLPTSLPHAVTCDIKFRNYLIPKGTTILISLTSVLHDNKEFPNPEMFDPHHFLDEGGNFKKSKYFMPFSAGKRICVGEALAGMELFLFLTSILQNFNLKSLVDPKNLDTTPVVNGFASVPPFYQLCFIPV

[4] = Antiproliferative activity against human SKOV3 cells assessed as cell growth at 10^-6 M after 48 hrs by sulforhodamine B assay; type: functional; details: SK-OV-3, 48 h, read-out: Activity
CYP1A2 = target: T1, CYP1A2 (Homo sapiens, UniProt P05177); assay: Inhibition of recombinant human CYP1A2 assessed as remaining enzyme activity using CYP1A2 blue as substrate at 10 uM after 5 mins in presence of NADP by fluorescence plate reader analysis; type: ADME; details: recombinant human CYP1A2, probe CYP1A2 blue, read-out: Activity
T1 sequence (P05177 whole entry): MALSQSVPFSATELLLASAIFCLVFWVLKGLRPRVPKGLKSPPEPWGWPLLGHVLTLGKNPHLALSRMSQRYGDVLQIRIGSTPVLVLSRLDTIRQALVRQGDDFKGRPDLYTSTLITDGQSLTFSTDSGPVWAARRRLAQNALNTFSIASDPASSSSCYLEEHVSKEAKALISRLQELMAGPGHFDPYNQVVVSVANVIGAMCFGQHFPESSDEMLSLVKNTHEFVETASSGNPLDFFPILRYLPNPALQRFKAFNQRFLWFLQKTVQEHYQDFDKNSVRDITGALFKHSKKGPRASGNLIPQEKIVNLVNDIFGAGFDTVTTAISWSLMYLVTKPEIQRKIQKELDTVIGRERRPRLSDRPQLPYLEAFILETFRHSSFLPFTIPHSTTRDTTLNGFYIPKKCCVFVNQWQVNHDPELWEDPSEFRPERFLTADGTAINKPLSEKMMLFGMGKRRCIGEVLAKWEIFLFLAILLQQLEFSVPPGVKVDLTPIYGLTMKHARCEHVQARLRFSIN

[5] = Antiproliferative activity against human OVCAR5 cells assessed as cell growth at 10^-8 M after 48 hrs by sulforhodamine B assay; type: functional; details: OVCAR-5, 48 h, read-out: Activity
[6] = Antiproliferative activity against human LOXIMVI cells assessed as cell growth at 10^-8 M after 48 hrs by sulforhodamine B assay; type: functional; details: LOX IMVI, read-out: Activity
NCI-H522 = assay: Antiproliferative activity against human NCI-H522 cells assessed as cell growth at 10^-4 M after 48 hrs by sulforhodamine B assay; type: functional; details: NCI-H522, 48 h, read-out: Activity
[7] = Antiproliferative activity against human TK10 cells assessed as cell growth at 10^-4 M after 48 hrs by sulforhodamine B assay; type: functional; details: TK-10, 48 h, read-out: Activity
[8] = Antiproliferative activity against human RPMI8226 cells assessed as cell growth at 10^-4 M after 48 hrs by sulforhodamine B assay; type: functional; details: RPMI-8226, 48 h, read-out: Activity
EKVX = assay: Antiproliferative activity against human EKVX cells assessed as cell growth at 10^-4 M after 48 hrs by sulforhodamine B assay; type: functional; details: read-out: Activity
SK-MEL-2 [9] = assay: Antiproliferative activity against human SK-MEL-2 cells assessed as cell growth at 10^-6 M after 48 hrs by sulforhodamine B assay; type: functional; details: SK-MEL-2, 48 h, read-out: Activity
MDA-MB-231 = assay: Antiproliferative activity against human MDA-MB-231 cells assessed as cell growth at 10^-7 M after 48 hrs by sulforhodamine B assay; type: functional; details: MDA-MB-231, 48 h, read-out: Activity
Malme-3M = assay: Antiproliferative activity against human MALME-3M cells assessed as cell growth at 10^-7 M after 48 hrs by sulforhodamine B assay; type: functional; details: read-out: Activity
CYP2D6 = CYP2D6 (Homo sapiens, UniProt P10635); assay: Inhibition of recombinant human CYP2D6 assessed as remaining enzyme activity using CYP2D6 blue as substrate at 10 uM after 5 mins in presence of NADP by fluorescence plate reader analysis; type: ADME; details: recombinant human CYP2D6, probe CYP2D6 blue, read-out: Activity
Sequence of CYP2D6 (P10635 whole entry): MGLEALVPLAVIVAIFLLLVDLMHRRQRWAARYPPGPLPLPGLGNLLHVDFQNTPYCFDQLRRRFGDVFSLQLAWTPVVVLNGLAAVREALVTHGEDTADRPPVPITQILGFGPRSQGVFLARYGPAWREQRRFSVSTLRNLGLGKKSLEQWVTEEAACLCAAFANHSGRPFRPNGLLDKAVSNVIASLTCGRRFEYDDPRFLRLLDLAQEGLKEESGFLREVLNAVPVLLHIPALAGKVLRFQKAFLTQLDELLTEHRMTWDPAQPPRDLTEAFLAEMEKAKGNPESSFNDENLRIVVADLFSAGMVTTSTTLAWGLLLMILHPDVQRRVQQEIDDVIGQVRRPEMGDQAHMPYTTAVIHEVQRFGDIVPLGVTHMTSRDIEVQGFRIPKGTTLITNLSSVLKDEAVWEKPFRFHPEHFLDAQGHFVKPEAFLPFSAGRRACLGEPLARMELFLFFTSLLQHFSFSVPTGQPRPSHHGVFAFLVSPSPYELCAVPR

[10] = Antiproliferative activity against human OVCAR8 cells assessed as cell growth at 10^-6 M after 48 hrs by sulforhodamine B assay; type: functional; details: OVCAR-8, 48 h, read-out: Activity
[11] = Antiproliferative activity against human NCI-ADR-RES cells assessed as cell growth at 10^-8 M after 48 hrs by sulforhodamine B assay; type: functional; details: read-out: Activity
[12] = Antiproliferative activity against human SW620 cells assessed as cell growth at 10^-7 M after 48 hrs by sulforhodamine B assay; type: functional; details: SW-620, 48 h, read-out: Activity
SK-MEL-28 = assay: Antiproliferative activity against human SK-MEL-28 cells assessed as cell growth at 10^-4 M after 48 hrs by sulforhodamine B assay; type: functional; details: SK-MEL-28, 48 h, read-out: Activity
[13] = Antiproliferative activity against human OVCAR3 cells assessed as cell growth at 10^-6 M after 48 hrs by sulforhodamine B assay; type: functional; details: OVCAR-3, 48 h, read-out: Activity
[14] = Antiproliferative activity against human SW620 cells assessed as cell growth at […] M after 48 hrs by sulforhodamine B assay; type: functional; details: SW-620, 48 h, read-out: Activity
[15] = Antiproliferative activity against human OVCAR5 cells assessed as cell growth at 10^-7 M after 48 hrs by sulforhodamine B assay; type: functional; details: OVCAR-5, 48 h, read-out: Activity
KM12 = assay: Antiproliferative activity against human KM12 cells assessed as cell growth at 10^-6 M after 48 hrs by sulforhodamine B assay; type: functional; details: KM12, 48 h, read-out: Activity
[16] = Antiproliferative activity against human MOLT4 cells assessed as cell growth at 10^-8 M after 48 hrs by sulforhodamine B assay; type: functional; details: MOLT-4, 48 h, read-out: Activity

Row | SMILES | GI50 (A549) [µM] | TGI (A549) [µM] | CC50 (A549) [µM] | GI50 (SK-MEL-2 [1]) [µM] | TGI (SK-MEL-2 [1]) [µM] | CC50 (SK-MEL-2 [1]) [µM] | GI50 (MCF7) [µM] | TGI (MCF7) [µM] | CC50 (MCF7) [µM] | GI50 [2] [µM] | TGI [2] [µM] | growth at 1 µM [3] [%] | growth at 100 µM (MDA-MB-468) [%] | activity at 5 min, 10 µM (CYP2C9) [%] | growth at 1 µM [4] [%] | activity at 5 min, 10 µM (CYP1A2) [%] | growth at 0.01 µM [6] [%] | growth at 100 µM (NCI-H522) [%] | growth at 100 µM [7] [%] | growth at 100 µM [8] [%] | also measured
1 | CNC(=O)c1cc(Oc2ccc(NC(=O)Nc3ccc(Cl)c(C(F)(F)F)c3)cc2)ccn1 [SORAFENIB] | 3.16 | 12.6 | 63.1 | 2 | 3.16 | 6.31 | 2.51 | 7.94 | 50.1 | 3.16 | 12.6 |  |  |  |  |  |  |  |  |  | 
2 | CNC(=O)c1cc(Oc2ccc3nc(NC(=O)Nc4cc(C(F)(F)F)cc(C(F)(F)F)c4)sc3c2)ccn1 | 1.3 | 2.67 | 5.51 | 1.05 | 3.13 | 9.31 | 1.05 | 2.93 | 8.23 | 1.03 | 2.27 | 46 | -75 | 88.2 | 72 | 110 | 93 | -67 | -87 | -52 | growth at 0.01 µM [5]: 94%; growth at 100 µM (EKVX): -56%; growth at 1 µM (SK-MEL-2 [9]): 52%; growth at 0.1 µM (MDA-MB-231): 98%; growth at 0.1 µM (Malme-3M): 90%; activity at 5 min, 10 µM (CYP2D6): 91.5%; growth at 1 µM [10]: 70%; growth at 0.01 µM [11]: 101%; growth at 0.1 µM [12]: 113%; growth at 100 µM (SK-MEL-28): -70%; growth at 1 µM [13]: 52%; LC50 [2]: 5.04 µM; growth at 0.01 µM [14]: 102%; growth at 0.1 µM [15]: 98%; growth at 1 µM (KM12): 25%
3 | CNC(=O)c1cc(Oc2ccc3nc(NC(=O)Nc4ccc(Cl)c(C(F)(F)F)c4)sc3c2)ccn1 | 1.93 |  | > 100 | 5.69 | 47 | > 100 | 1.72 |  | > 100 | 2.11 | 4.02 | 86 | -43 | 98.5 | 90 | 106 | 99 | 23 | -62 | 46 | growth at 0.01 µM [5]: 90%; growth at 100 µM (EKVX): -32%; growth at 1 µM (SK-MEL-2 [9]): 89%; growth at 0.1 µM (MDA-MB-231): 109%; growth at 0.1 µM (Malme-3M): 98%; growth at 0.01 µM [16]: 106%; activity at 5 min, 10 µM (CYP2D6): 98.7%; growth at 1 µM [10]: 103%; growth at 0.01 µM [11]: 110%; growth at 0.1 µM [12]: 101%; growth at 100 µM (SK-MEL-28): 38%; growth at 1 µM [13]: 108%; growth at 0.01 µM [14]: 100%; growth at 0.1 µM [15]: 95%; growth at 1 µM (KM12): 85%
4 | CNC(=O)c1cc(Oc2ccc3nc(NC(=O)Nc4ccc(Cl)c(Cl)c4)sc3c2)ccn1 | 1.89 | 3.99 |  | 2.56 | 5.97 | > 100 | 2.65 | > 100 | > 100 | 2.3 | 5.38 | 106 | -44 | 90 | 117 | 104 | 95 | 23 | -14 | 15 | growth at 100 µM (EKVX): 23%; growth at 1 µM (SK-MEL-2 [9]): 105%; growth at 0.1 µM (MDA-MB-231): 97%; growth at 0.1 µM (Malme-3M): 82%; growth at 0.01 µM [16]: 92%; activity at 5 min, 10 µM (CYP2D6): 96.4%; growth at 1 µM [10]: 103%; growth at 0.01 µM [11]: 97%; growth at 0.1 µM [12]: 115%; growth at 100 µM (SK-MEL-28): -51%; growth at 1 µM [13]: 99%; LC50 [2]: > 100 µM; growth at 0.01 µM [14]: 102%; growth at 1 µM (KM12): 91%
